Tested on: HOP-62 multicell spheroids with HUVEC/MSC, viability
Test: Anticancer human tumor HOP-62 cell line growth inhibition [KRAS2];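 further: viability read after a week of compound exposure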;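 on viability, T/C: 100% = DMSO vehicle-treated spheroids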
Conditions: for IC50: curve of first compound; for viability, T/C: stronger effect = lower value; active means viability on the fitted dose curve at most 10% of control; inactive means the rest
Summary of the method: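 Combination screen of spheroid viability in tumor-cell co-cultures with endothelial (HUVEC) and mesenchymal stem cell stroma. Each agent was tested in half-log dilutions, topping at clinical Cmax or at 10 microM without a known Cmax.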

[1] = second compound 0.1 µM, first compound 0.000316 µM
[2] = second compound 0.1 µM, first compound 0.001 µM
[3] = second compound 0.1 µM, first compound 0.00316 µM
[4] = second compound 0.1 µM, first compound 0.01 µM
[5] = second compound 0.1 µM, first compound 0.0316 µM
[6] = second compound 0.316 µM, first compound 0.000316 µM
[7] = second compound 0.316 µM, first compound 0.001 µM
[8] = second compound 0.316 µM, first compound 0.00316 µM
[9] = second compound 0.316 µM, first compound 0.01 µM
[10] = second compound 0.316 µM, first compound 0.0316 µM
[11] = second compound 1 µM, first compound 0.000316 µM
[12] = second compound 1 µM, first compound 0.001 µM
[13] = second compound 1 µM, first compound 0.00316 µM
[14] = second compound 1 µM, first compound 0.01 µM
[15] = second compound 1 µM, first compound 0.0316 µM
[16] = second compound 3.16 µM, first compound 0.000316 µM
[17] = second compound 3.16 µM, first compound 0.001 µM
[18] = second compound 3.16 µM, first compound 0.00316 µM
[19] = second compound 3.16 µM, first compound 0.01 µM
[20] = second compound 3.16 µM, first compound 0.0316 µM
[21] = second compound 10 µM, first compound 0.000316 µM
[22] = second compound 10 µM, first compound 0.001 µM
[23] = second compound 10 µM, first compound 0.00316 µM
[24] = second compound 10 µM, first compound 0.01 µM
[25] = second compound 10 µM, first compound 0.0316 µM
[26] = second compound 0.1 µM, first compound 0.1 µM
[27] = second compound 0.316 µM, first compound 0.1 µM
[28] = second compound 1 µM, first compound 0.1 µM
[29] = second compound 3.16 µM, first compound 0.1 µM
[30] = second compound 10 µM, first compound 0.1 µM
[31] = second compound 0.1 µM, first compound 0.316 µM
[32] = second compound 0.1 µM, first compound 1 µM
[33] = second compound 0.1 µM, first compound 3.16 µM
[34] = second compound 0.1 µM, first compound 10 µM
[35] = second compound 0.316 µM, first compound 0.316 µM
[36] = second compound 0.316 µM, first compound 1 µM
[37] = second compound 0.316 µM, first compound 3.16 µM
[38] = second compound 0.316 µM, first compound 10 µM
[39] = second compound 1 µM, first compound 0.316 µM
[40] = second compound 1 µM, first compound 1 µM
[41] = second compound 1 µM, first compound 3.16 µM
[42] = second compound 1 µM, first compound 10 µM
[43] = second compound 3.16 µM, first compound 0.316 µM
[44] = second compound 3.16 µM, first compound 1 µM
[45] = second compound 3.16 µM, first compound 3.16 µM
[46] = second compound 3.16 µM, first compound 10 µM
[47] = second compound 10 µM, first compound 0.316 µM
[48] = second compound 10 µM, first compound 1 µM
[49] = second compound 10 µM, first compound 3.16 µM
[50] = second compound 10 µM, first compound 10 µM

CC(=O)Nc1cccc(-n2c(=O)n(C3CC3)c(=O)c3c(Nc4ccc(I)cc4F)n(C)c(=O)c(C)c32)c1 + CNCc1ccccc1-c1csc(C(C)Nc2nc(C)nc3cc(OC)c(OC)cc23)c1
2.84 nM: IC50 (second compound 0.316 µM)
4.3 nM: IC50 (second compound 0.1 µM)
inactive: viability, T/C (second compound 0.1 µM, first compound 0.0001 µM) 104% | viability, T/C [1] 97.2% | viability, T/C [2] 81.6% | viability, T/C [3] 60.1% | viability, T/C [4] 28% | viability, T/C [5] 27.4% | viability, T/C (second compound 0.316 µM, first compound 0.0001 µM) 106% | viability, T/C [6] 97.4% | viability, T/C [7] 77% | viability, T/C [8] 48% | viability, T/C [9] 30.1% | viability, T/C [10] 29.9% | viability, T/C (second compound 1 µM, first compound 0.0001 µM) 91.2% | viability, T/C [11] 92.8% | viability, T/C [12] 74.1% | viability, T/C [13] 41.4% | viability, T/C [14] 26.8% | viability, T/C [15] 25.7%
active: viability, T/C (second compound 3.16 µM, first compound 0.0001 µM) 7.87% | viability, T/C [16] 0.24% | viability, T/C [17] 3.22% | viability, T/C [18] 0.35% | viability, T/C [19] 0.07% | viability, T/C [20] 0.24% | viability, T/C (second compound 10 µM, first compound 0.0001 µM) 0.13% | viability, T/C [21] 0.15% | viability, T/C [22] 2.8% | viability, T/C [23] 0.12% | viability, T/C [24] 2.27% | viability, T/C [25] 0.31%
2.32 nM: IC50 (second compound 1 µM)
< 0.1 nM: IC50 (second compound 3.16 µM) | IC50 (second compound 10 µM)

CC(C)n1nc(-c2ccc3oc(N)nc3c2)c2c(N)ncnc21 + CNCc1ccccc1-c1csc(C(C)Nc2nc(C)nc3cc(OC)c(OC)cc23)c1
active: viability, T/C [16] 0.36% | viability, T/C [17] 0.49% | viability, T/C [18] 0.36% | viability, T/C [19] 0.46% | viability, T/C [20] 2.66% | viability, T/C [29] 0.67% | viability, T/C [21] 0.46% | viability, T/C [22] 0.4% | viability, T/C [23] 0.42% | viability, T/C [24] 0.42% | viability, T/C [25] 0.38% | viability, T/C [30] 0.52%
1.78 nM: IC50 (second compound 1 µM)
< 0.316 nM: IC50 (second compound 3.16 µM) | IC50 (second compound 10 µM)
4.45 nM: IC50 (second compound 0.1 µM)
2.24 nM: IC50 (second compound 0.316 µM)
inactive: viability, T/C [1] 113% | viability, T/C [2] 86.7% | viability, T/C [3] 57.9% | viability, T/C [4] 32.5% | viability, T/C [5] 22.2% | viability, T/C [26] 15.9% | viability, T/C [6] 89.5% | viability, T/C [7] 69.2% | viability, T/C [8] 40.2% | viability, T/C [9] 27.9% | viability, T/C [10] 19.5% | viability, T/C [27] 15.9% | viability, T/C [11] 75.9% | viability, T/C [12] 63.1% | viability, T/C [13] 35.3% | viability, T/C [14] 28.9% | viability, T/C [15] 17.3% | viability, T/C [28] 14.1%

CC1(C)CCC(CN2CCN(c3ccc(C(=O)NS(=O)(=O)c4ccc(NCC5CCOCC5)c([N+](=O)[O-])c4)c(Oc4cnc5[nH]ccc5c4)c3)CC2)=C(c2ccc(Cl)cc2)C1 + CNCc1ccccc1-c1csc(C(C)Nc2nc(C)nc3cc(OC)c(OC)cc23)c1
4570 nM: IC50 (second compound 0.316 µM)
5710 nM: IC50 (second compound 0.1 µM)
3380 nM: IC50 (second compound 1 µM)
inactive: viability, T/C [5] 92.1% | viability, T/C [26] 89.5% | viability, T/C [31] 82.5% | viability, T/C [32] 95.3% | viability, T/C [33] 71.6% | viability, T/C [34] 29.5% | viability, T/C [10] 81.2% | viability, T/C [27] 77% | viability, T/C [35] 76.5% | viability, T/C [36] 81.6% | viability, T/C [37] 61.8% | viability, T/C [38] 24.9% | viability, T/C [15] 90.1% | viability, T/C [28] 76.2% | viability, T/C [39] 67.8% | viability, T/C [40] 73.1% | viability, T/C [41] 54% | viability, T/C [42] 14.9% | viability, T/C [20] 1.65% | viability, T/C [29] 25.9% | viability, T/C [43] 17.9% | viability, T/C [44] 40.3% | viability, T/C [45] 13.5% | viability, T/C [46] 1.45%
active: viability, T/C [25] 0.12% | viability, T/C [30] 0.16% | viability, T/C [47] 0.16% | viability, T/C [48] 0.18% | viability, T/C [49] 0.15% | viability, T/C [50] 0.22%
< 31.6 nM: IC50 (second compound 3.16 µM) | IC50 (second compound 10 µM)

COc1cc(Nc2ncc3c(n2)-c2ccc(Cl)cc2C(c2c(F)cccc2OC)=NC3)ccc1C(=O)O + CNCc1ccccc1-c1csc(C(C)Nc2nc(C)nc3cc(OC)c(OC)cc23)c1
143 nM: IC50 (second compound 0.316 µM)
active: viability, T/C [29] 0.89% | viability, T/C [43] 10.6% | viability, T/C [44] 4.93% | viability, T/C [45] 0.62% | viability, T/C [46] 4.15% | viability, T/C [25] 0.12% | viability, T/C [30] 0.2% | viability, T/C [47] 1.86% | viability, T/C [48] 0.11% | viability, T/C [49] 2.34% | viability, T/C [50] 0.17%
274 nM: IC50 (second compound 0.1 µM)
< 31.6 nM: IC50 (second compound 3.16 µM) | IC50 (second compound 10 µM)
39.6 nM: IC50 (second compound 1 µM)
inactive: viability, T/C [5] 69.4% | viability, T/C [26] 57.7% | viability, T/C [31] 44.5% | viability, T/C [32] 43.8% | viability, T/C [33] 30.5% | viability, T/C [34] 19.6% | viability, T/C [10] 59.5% | viability, T/C [27] 54.2% | viability, T/C [35] 42.4% | viability, T/C [36] 37% | viability, T/C [37] 27.3% | viability, T/C [38] 20.3% | viability, T/C [15] 51.4% | viability, T/C [28] 46.3% | viability, T/C [39] 37.3% | viability, T/C [40] 34.6% | viability, T/C [41] 27.4% | viability, T/C [42] 17.9% | viability, T/C [20] 15.7%

COc1cc2nccc(Oc3ccc(NC(=O)C4(C(=O)Nc5ccc(F)cc5)CC4)cc3)c2cc1OC + CNCc1ccccc1-c1csc(C(C)Nc2nc(C)nc3cc(OC)c(OC)cc23)c1
inactive: viability, T/C [5] 92.4% | viability, T/C [26] 94.1% | viability, T/C [31] 102% | viability, T/C [32] 96.3% | viability, T/C [33] 76% | viability, T/C [34] 19.3% | viability, T/C [10] 90.6% | viability, T/C [27] 82.8% | viability, T/C [35] 81.7% | viability, T/C [36] 86.9% | viability, T/C [37] 69.8% | viability, T/C [38] 15.2% | viability, T/C [15] 74.7% | viability, T/C [28] 79.2% | viability, T/C [39] 85.6% | viability, T/C [40] 80.7% | viability, T/C [41] 57.5%
4800 nM: IC50 (second compound 0.316 µM)
5360 nM: IC50 (second compound 0.1 µM)
< 31.6 nM: IC50 (second compound 3.16 µM) | IC50 (second compound 10 µM)
3670 nM: IC50 (second compound 1 µM)
active: viability, T/C [42] 0.44% | viability, T/C [20] 0.34% | viability, T/C [29] 0.17% | viability, T/C [43] 0.13% | viability, T/C [44] 0.15% | viability, T/C [45] 0.22% | viability, T/C [46] 0.14% | viability, T/C [25] 0.12% | viability, T/C [30] 0.14% | viability, T/C [47] 0.12% | viability, T/C [48] 0.11% | viability, T/C [49] 0.12% | viability, T/C [50] 0.19%

Cn1ncnc1[C@H]1c2n[nH]c(=O)c3cc(F)cc(c23)N[C@@H]1c1ccc(F)cc1 + CNCc1ccccc1-c1csc(C(C)Nc2nc(C)nc3cc(OC)c(OC)cc23)c1
inactive: viability, T/C [1] 98.2% | viability, T/C [2] 92.1% | viability, T/C [3] 91.8% | viability, T/C [4] 97.1% | viability, T/C [5] 86.5% | viability, T/C [26] 71% | viability, T/C [6] 101% | viability, T/C [7] 93.9% | viability, T/C [8] 89.4% | viability, T/C [9] 83.7% | viability, T/C [10] 79.3% | viability, T/C [27] 74.9% | viability, T/C [11] 69.2% | viability, T/C [12] 73% | viability, T/C [13] 81.2% | viability, T/C [14] 78.1% | viability, T/C [15] 68.9% | viability, T/C [28] 53.7%
> 100 nM: IC50 (second compound 0.1 µM) | IC50 (second compound 0.316 µM) | IC50 (second compound 1 µM)
< 0.316 nM: IC50 (second compound 3.16 µM) | IC50 (second compound 10 µM)
active: viability, T/C [16] 0.2% | viability, T/C [17] 0.14% | viability, T/C [18] 0.99% | viability, T/C [19] 0.21% | viability, T/C [20] 2.25% | viability, T/C [29] 5.87% | viability, T/C [21] 0.12% | viability, T/C [22] 0.17% | viability, T/C [23] 0.16% | viability, T/C [24] 0.15% | viability, T/C [25] 0.68% | viability, T/C [30] 0.19%

From PubChem BioAssay AID1963858 (Molecular Pharmacology Branch, DTP, NCI, 2024)
